Reference: US11572351B1, “Bis-Schiff base compositions and formulations” (Systima Technologies, Inc., priority 2016, dated 2023)

How the values were obtained:
[1] = Viscosity stability during 4 hour isothermal dwell at 120° C., parallel plate rheometer; assay type: physicochemical; conditions: isothermal 120° C., viscosity stayed 150 to 200 cP
Experimental: (§1) In some embodiments, the chemical composition may have a low viscosity, such as below about 100,000 cP at temperatures below 170° C. The viscosity may be measured by rotational rheometry by acquiring viscosity versus temperature curves on a parallel plate rheometer, commercially available from TA Instruments (New Castle, Del.) at a controlled strain of 0.01% and an angular frequency of 10.00 radians per second (rad/s) by heating samples at a rate of 2° C. per minute to the isothermal temperature specified. In one or more embodiments, the chemical composition may have a melt viscosity of less than or equal to 500 cP at 125° C. as measured by rotation rheometry. In one or more embodiments, the chemical composition may have a melt viscosity of less than or equal to 100,000 cP at 125° C. as measured by rotation rheometry. For instance, the chemical composition may have a melt viscosity of from 10,000 to 100,000 cP, from 40,000 to 80,000 cP, or from 20,000 to 50,000 cP at 125° C. In some particular embodiments, the chemical composition may have an extremely low viscosity at less than 200° C., such as less than 500 cP. In some particular embodiments, the chemical composition may have a melt viscosity of from 100 to 500 cP, from 200 to 400 cP, or from 300 to 500 cP at 125° C. […]

[2] = Melt viscosity versus temperature, parallel plate rheometer, temperature ramp; assay type: physicochemical; conditions: ramp 2° C. per minute, strain 0.01%, 10.00 rad/s; processing window about 100° C. up to at least 200° C.
Experimental: as §1

## C(=N\c1cccc(Oc2cccc(Oc3cccc(/N=C/c4ccco4)c3)c2)c1)/c1ccco1 [Example 2]
[1]
  period of time of stable low melt viscosity: at least 4 hours
[2]
  viscosity (melt flow viscosity): less than 1000 cP

## C(=N\c1ccc(Oc2cccc(Oc3ccc(/N=C/c4ccco4)cc3)c2)cc1)/c1ccco1 [Example 1]
[1]
  period of time of stable low melt viscosity: at least 4 hours
[2]
  viscosity (melt flow viscosity): less than 1000 cP
